This note sets out measurements from patent publication EP0294069A2, “Purine compounds, process for their preparation, intermediates and pharmaceutical compositions” (priority 1987, dated 1988).

The structures appear in SMILES notation. ≈ marks a conversion by molar mass, not a printed value. Where only a bound is given, the exact number is not on record here.

Series [1] in a line: Antiviral potency, comparison of isomers (no method given). The settings on record: as compared with the (R)-isomer.
In series [2] the test system is HSV-1 (SC16 strain, MRC-5 cells). Briefly: Plaque reduction test for herpes simplex virus 1. It counts as cell-based. The note with it: Human alphaherpesvirus 1, MRC5, plaque number reduced by 50%. A general note: In a plaque reduction assay, fewer plaques than in the control indicate reduced infectivity or spread.
In series [3] the test system is HSV-2 (MS strain, MRC-5 cells). Put plainly: Plaque reduction test for herpes simplex virus 2. Type of series: cell-based. The settings on record: Human alphaherpesvirus 2, MRC5, plaque number reduced by 50%. On the procedure: Cells (Vero or MRC-5) were grown to confluence in 24 well multi-dishes (well diameter = 1.5cm). The drained cell monolayers were each infected with approximately 50 infectious particles of herpes simplex virus 1 (HSV-1; strain HFEM) or herpes simplex virus 2 (HSV-2; strain MS) in 100µl of phosphate-buffered saline. The virus was adsorbed for 1 hour at room temperature. After adsorption, residual inoculum was removed from each well and replaced with 0.5ml of Eagle's MEM containing 5% newborn calf serum and 0.9% agarose (A37). Once the agarose had set, dilutions of the test compound, which had been prepared in Eagle's MEM (containing 5% newborn calf serum), were added, each well receiving 0.5ml of liquid overlay. The test compound was diluted to give the following series of concentrations: 200, 60, 20, 6....0.06µg/ml; final concentrations in the assay ranged, therefore, between 100µg/ml and 0.03µg/ml. […]
Cultures were fixed in formal saline, the agarose overlays were carefully washed off, and then the cell monolayers were stained with carbol fuchsin. […] The IC₅₀ (concentration to drug which inhibits plaque number by 50% relative to the number of plaques observed in virus control monolayers) of the test compound was calculated. In addition, the monolayers were examined for evidence of drug-induced cytotoxicity; the minimum concentration at which cytotoxicity occurs was recorded.

Series [4] is described as follows: Drug-induced cytotoxicity in uninfected cell monolayers. The note with it: uninfected cells, not cytotoxic at concentrations up to 100 µg/ml, read-out: concentration at which cytotoxicity occurs. Type of series: cell-based. Here is the method: Cultures were fixed in formal saline, the agarose overlays were carefully washed off, and then the cell monolayers were stained with carbol fuchsin. A stereo microscope was used to count plaques. The IC₅₀ (concentration to drug which inhibits plaque number by 50% relative to the number of plaques observed in virus control monolayers) of the test compound was calculated. In addition, the monolayers were examined for evidence of drug-induced cytotoxicity; the minimum concentration at which cytotoxicity occurs was recorded.

The subject of series [5] is Visna Virus (K184 strain in SCP cells). Briefly: CPE inhibition test (established monolayer) for lentiviruses. Type of series: cell-based. The settings on record: Visna-maedi virus. On the procedure:
3 x 10⁴ sheep choroid plexus (SCP) cells were plated into individual wells of a 96 well microtitre plate in 100µl of Eagle's MEM with Hanks salts containing 10% heat inactivated foetal calf serum (FCS). When monolayers had become established (after l or 2 days growth) they were washed with 200µl of maintenance medium (Eagle's MEM with Hanks salts containing 0.5% FCS) and infected with 100µl of visna virus (strain K184) in maintenance medium (30 TCID₅₀/ml). Test samples were diluted with maintenance medium in further 96 well microtitre plates over the range 200-0.09µg/ml by 3-fold dilution steps. 100µl of the diluted samples was then transferred directly onto virus-infected monolayers (final concentration range therefore 100-0.045µg/ml) and incubated at 37°C in a humidified, 5% CO₂ incubation until virus-induced CPE was maximal in the untreated virus-infected controls (usually 12-14 days). The plates were fixed with formal saline and stained with crystal violet. Virus-induced CPE was then scored microscopically and the minimum concentration of sample giving complete protection of the cell monolayers (MIC) determined.

Turning to `Nc1ncc2ncn(OC[C@@H](O)CO)c2n1` [Example, (S)-2-Amino-9-(2,3-dihydroxyprop-l-oxy)purine], the “potency as an antiviral agent” value in series [1] is reported as “greater potency”.

Broadly, the IC50 is the concentration that inhibits the measured activity by half. For the compound `Nc1nc2c(ncn2OC[C@@H](O)CO)c(=O)[nH]1` [Preparation Example, (S)-9-(2,3-Dihydroxyprop-1-oxy)quanine], the IC50 was 0.7 µg/mL (≈ 2.9 µM) in series [2], 0.06 µg/mL (≈ 0.249 µM) in series [3] and 10 µg/mL (≈ 41.5 µM) in series [5]. Besides, in series [4], the MCC is over 100 µg/mL.
